The values below come from EPA's ToxRefDB 2.

The term LOAEL denotes the lowest dose or exposure tested at which an adverse effect was seen. The term NOAEL denotes the highest dose or exposure tested at which no adverse effect was seen.

Data set [1] has as its system rat. The conditions noted are these: Multigenerational reproductive toxicity study, sprague dawley, Oral, Feed, dose end: 2 generation.
The test system of data set [2] is rat. The conditions noted are these: Prenatal developmental toxicity study, sprague dawley, Oral, Gavage/Intubation, dose end: 15 GD.
The test system of data set [3] is rat. Particulars: Multigenerational reproductive toxicity study, sprague dawley, Oral, Feed, dose end: 2 generation. This is another data set of the same source.
Data set [4] has as its system rat. The conditions noted are these: Fertility (Segment I), Oral, Gavage/Intubation, dose end: 1 generation.
Data set [5] concerns rat. The conditions noted are these: Fertility (Segment I), Oral, Gavage/Intubation, dose end: 1 generation. This is another data set of the same source.
Data set [6] deals with rat. Particulars: Prenatal developmental toxicity study, Oral, Gavage/Intubation, dose end: 18 GD.
For data set [7], the system named is rat. The conditions noted are these: Prenatal developmental toxicity study, sprague dawley, Oral, Gavage/Intubation, dose end: 16 GD.
For data set [8], the system named is rat. Particulars: Subchronic oral toxicity in rodents, sprague dawley, Feed, dose end: 13 week.
The subject of data set [9] is rat. The conditions noted are these: Prenatal developmental toxicity study, wistar, Inhalation, Whole-Body, dose end: 15 GD.
In another data set the test system is rabbit. Particulars: Prenatal developmental toxicity study, himalayan, Inhalation, Whole-Body, dose end: 29 GD.
The subject of data set [10] is rat. The conditions noted are these: Multigenerational reproductive toxicity study, other, Oral, Feed, dose end: 2 generation.
Where [11] appears, read: group: offspring, systemic / in life observation / body weight / offspring (pup) weight.
[12] abbreviates: group: parental, systemic / in life observation / body weight / body weight + systemic / in life observation / body weight / body weight gain.
Setting [13] is: group: developmental, developmental / developmental malformation / bone / delayed ossification.
Setting [14] is: group: developmental, developmental / developmental malformation / bone / delayed ossification + developmental / developmental malformation / ureter / distended.
Setting [15] is: group: maternal, systemic / in life observation / body weight / body weight gain + systemic / in life observation / food consumption / food consumption.
[16] abbreviates: group: maternal, systemic / in life observation / body weight / body weight gain + systemic / in life observation / food consumption / food consumption + ….
Where [17] appears, read: group: parental, systemic / pathology microscopic / stomach / proliferation.
Where [18] appears, read: group: maternal, reproductive / reproductive performance / fertility / fertility + reproductive / reproductive performance / pregnancy index / pregnancy ….
[19] abbreviates: group: parental, systemic / in life observation / body weight / body weight + systemic / in life observation / clinical signs / body surface staining + ….
The mark [20] stands for this setting: group: parental, systemic / in life observation / clinical signs / convulsions.
The mark [21] stands for this setting: group: maternal, reproductive / reproductive performance / estrous cycle / abnormal + reproductive / reproductive performance / estrous cycle / corpora lutea….
Where [22] appears, read: group: parental, systemic / in life observation / clinical signs / alopecia.
[23] abbreviates: group: parental, systemic / in life observation / clinical signs / alopecia + systemic / in life observation / body weight / body weight + systemic / in life….
Setting [24] is: group: developmental, developmental / developmental malformation / eye / microphthalmia + developmental / developmental malformation / general / situs inversus + ….
The mark [25] stands for this setting: group: maternal, reproductive / reproductive performance / postimplantation loss / postimplantation loss + reproductive / reproductive performance / ….
The mark [26] stands for this setting: group: developmental, developmental / developmental malformation / bone / incomplete ossification + developmental / developmental malformation / bone / unossified….
The mark [27] stands for this setting: group: maternal, systemic / in life observation / body weight / body weight gain.
Where [28] appears, read: group: maternal, systemic / in life observation / body weight / body weight gain + reproductive / reproductive performance / postimplantation loss / ….
Setting [29] is: group: maternal, reproductive / reproductive performance / estrous cycle / length.
[30] abbreviates: group: systemic, systemic / clinical chemistry / calcium / calcium + systemic / clinical chemistry / globulins / globulins + systemic / clinical chemistry / ….
The mark [31] stands for this setting: group: developmental, developmental / developmental malformation / bone / incomplete ossification + developmental / developmental malformation / bone / ….
The mark [32] stands for this setting: group: developmental, developmental / developmental malformation / bone / malpositioned.
[33] abbreviates: group: maternal, systemic / in life observation / mortality / mortality.
Setting [34] is: group: developmental, developmental / developmental malformation / heart / [other] + developmental / developmental malformation / limb / [other].
[35] abbreviates: group: reproductive, reproductive / reproductive performance / fertility / fertility + reproductive / reproductive performance / precoital interval / precoital ….

Turning to `CC1COc2ccccc2N1C(=O)C(Cl)Cl` (configuration not stated) [Benoxacor], in the data set with rat [1] (setting [11]), the LEL is 45.5 mg/kg/day, the LOAEL was 45.5 mg/kg/day, the NEL turned out to be 4.2 mg/kg/day and the NOAEL was found to be 4.2 mg/kg/day. Besides, in the data set on rat [1] (setting [12]), the LEL is 34.8 mg/kg/day, the lowest observed adverse effect level (LOAEL) stood at 34.8 mg/kg/day, the NEL came out at 3.55 mg/kg/day and the NOAEL is 3.55 mg/kg/day.
On to `COC[C@H](C)N(C(=O)CCl)c1c(C)csc1C` [Dimethenamid-P], for which the LEL was found to be 150 mg/kg/day in the data set with rat [2] (setting [13]) and 25 mg/kg/day in the data set with rat [2] (setting [16]). Besides, the LOAEL with rat [2] (setting [13]) is 150 mg/kg/day; in the data set on rat [2] (setting [15]) it was 25 mg/kg/day. For the same molecule, the NEL with rat [2] (setting [14]) was 25 mg/kg/day; in the data set on rat [2] (setting [16]) it was less than 25 mg/kg/day. Moreover, the NOAEL in the data set with rat [2] (setting [14]) was 25 mg/kg/day; with rat [2] (setting [15]), less than 25 mg/kg/day.
Regarding `O=C([O-])C1C2CCC(O2)C1C(=O)[O-].[Na+].[Na+]` (configuration not stated) [Disodium endothal], in the data set with rat [3] (setting [11]), the LEL worked out at 10.9 mg/kg/day, the LOAEL is 77.1 mg/kg/day, the NEL came to 2.1 mg/kg/day and the no observed adverse effect level (NOAEL) was determined as 10.9 mg/kg/day. In addition, in the data set with rat [3] (setting [17]), the LEL was 2.1 mg/kg/day, the LOAEL amounted to 2.1 mg/kg/day, the NEL was less than 2.1 mg/kg/day and the NOAEL was less than 2.1 mg/kg/day.
In the case of `O=C(N[C@H]1CN2CCC1CC2)c1cc2ccoc2cn1`, the LEL in the data set on rat [4] (setting [18]) was 150 mg/kg/day; with rat [4] (setting [20]) it was 7 mg/kg/day; with rat [5] (setting [21]), 150 mg/kg/day; with rat [5] (setting [22]) it was 5 mg/kg/day; in the data set on rat [6] (group: developmental, developmental / developmental malformation / great vessels / [other]) it was 20 mg/kg/day; in the data set with rat [6] (group: maternal, systemic / in life observation / clinical signs / alopecia), 20 mg/kg/day. In addition, the LOAEL is more than 175 mg/kg/day in the data set with rat [4] (setting [18]); more than 175 mg/kg/day in the data set on rat [4] (setting [19]); more than 150 mg/kg/day with rat [5] (setting [21]); more than 150 mg/kg/day in the data set on rat [5] (setting [23]); more than 150 mg/kg/day with rat [6] (setting [24]); more than 150 mg/kg/day in the data set on rat [6] (setting [25]). Besides, the NEL in the data set on rat [4] (setting [18]) was 75 mg/kg/day; with rat [4] (setting [20]), less than 7 mg/kg/day; with rat [5] (setting [21]), 50 mg/kg/day; with rat [5] (setting [22]) it was less than 5 mg/kg/day; in the data set with rat [6] (setting [25]), 5 mg/kg/day. Moreover, the NOAEL is not below 175 mg/kg/day with rat [4] (setting [18]); not below 175 mg/kg/day with rat [4] (setting [19]); not below 150 mg/kg/day in the data set with rat [5] (setting [21]); not below 150 mg/kg/day with rat [5] (setting [23]); not below 150 mg/kg/day in the data set on rat [6] (setting [24]); not below 150 mg/kg/day with rat [6] (setting [25]).
In the case of `Nc1nc(N)nc(Cl)n1` [2-Chloro-4,6-diamino-1,3,5-triazine], the LEL in the data set on rat [7] (setting [26]) was 25 mg/kg/day; in the data set with rat [7] (setting [27]), 75 mg/kg/day; in the data set with rat [8] (setting [29]), 7.6 mg/kg/day; in the data set with rat [8] (group: systemic, systemic / clinical chemistry / protein / protein), 16.7 mg/kg/day. Moreover, the LOAEL with rat [7] (setting [26]) was 25 mg/kg/day; in the data set on rat [7] (setting [27]) it was 75 mg/kg/day; in the data set on rat [8] (setting [29]), 7.6 mg/kg/day; in the data set with rat [8] (setting [30]) it was more than 34.1 mg/kg/day. For the same molecule, the NEL was 2.5 mg/kg/day with rat [7] (setting [26]), 25 mg/kg/day in the data set on rat [7] (setting [28]), 0.7 mg/kg/day with rat [8] (setting [29]) and 6.7 mg/kg/day in the data set with rat [8] (setting [30]). In addition, the NOAEL was 2.5 mg/kg/day with rat [7] (setting [26]), 25 mg/kg/day with rat [7] (setting [28]), 0.7 mg/kg/day in the data set with rat [8] (setting [29]) and not below 34.1 mg/kg/day with rat [8] (setting [30]).
As to `CC(C)CCO` [Isopentyl alcohol], the lowest-observed-adverse-effect level (LOAEL) was more than 10 ppm with rat [9] (setting [31]), more than 10 ppm in the data set on rat [9] (setting [33]), more than 10 ppm with rabbit (setting [34]) and 2.5 ppm with rabbit (setting [33]). Moreover, the NOAEL was not below 10 ppm with rat [9] (setting [31]), not below 10 ppm with rat [9] (setting [33]), not below 10 ppm in the data set with rabbit (setting [34]) and 0.5 ppm in the data set with rabbit (setting [33]). The LEL turned out to be 0.5 ppm in the data set with rat [9] (setting [32]), 0.5 ppm with rat [9] (setting [33]), 0.5 ppm in the data set with rabbit (setting [34]) and 2.5 ppm in the data set with rabbit (setting [33]). Moreover, the NEL in the data set with rat [9] (setting [32]) is less than 0.5 ppm; in the data set on rat [9] (setting [33]), less than 0.5 ppm; with rabbit (setting [34]), less than 0.5 ppm; in the data set on rabbit (setting [33]), 0.5 ppm.
With `C[C@H]1O[C@H](OC2[C@@H](O)[C@@H](O)C(O)[C@H](O)[C@H]2O)[C@@H](N)C[C@@H]1N=C(N)C(=O)O` (some centres not stated) [Kasugamycin], in the data set on rat [10] (setting [12]), the LEL is 70.3 mg/kg/day, the LOAEL worked out at 70.3 mg/kg/day, the NEL amounted to 13.7 mg/kg/day and the NOAEL worked out at 13.7 mg/kg/day. In the data set on rat [10] (setting [35]), the LEL is 425 mg/kg/day, the lowest observed adverse effect level (LOAEL) was found to be 425 mg/kg/day, the NEL amounted to 70.3 mg/kg/day and the no observed adverse effect level (NOAEL) came to 70.3 mg/kg/day.
